Patent publication US6417187B2, “1,2,4-triazole based compounds that can be used as insecticides or acaricides and processes” (Dow AgroSciences LLC, priority 2000, dated 2002)
Where two headings read alike, the source gives them in different places.

How the values were obtained:
Assay type in all cases: in vivo
[1] = test system: tobacco budworm (Heliothis virescens); experiment: Insecticidal test for tobacco budworm (cotton cotyledon leaf-disc dip); details: 400 ppm, cotton cotyledon leaf-dip, 2nd instar larvae, 5 days; for pest or weed control at 400 ppm: Heliothis virescens, 120 h, read-out: TBW: activity at 400 ppm against tobacco budworm (% Control rating)
[2] = test system: two-spotted spider mite (Tetranychus urticae); experiment: Insecticidal test for two-spotted spider mite, ovicide method; details: for pest or weed control at 2.5 ppm: Tetranychus urticae, foliar, 144 h, read-out: SM: activity at 2.5 ppm against two-spotted spider mite (% Control rating)
[3] = test system: Sweetpotato Whitefly (Bemisia tabacia); experiment: Insecticidal test for Sweetpotato Whitefly (cotton plant spray); details: 200 ppm spray on cotton plants, 13 days, reduction of large nymphs; for pest or weed control at 200 ppm: Bemisia, 312 h, read-out: WF: activity at 200 ppm against whitefly (% Control rating)
[4] = test system: cotton aphid (Aphis gossvpii); experiment: Insecticidal test for cotton aphid (squash cotyledon spray); details: 50 ppm spray on infested squash cotyledons, 3 days, population reduction versus untreated; for pest or weed control at 50 ppm: 72 h, read-out: CA: activity at 50 ppm against cotton aphid (% Control rating)
[5] = test system: cabbage looper (Trichoplusia ni); experiment: Insecticidal test for cabbage looper (cabbage leaf-disc dip); details: 400 ppm, cabbage leaf-dip, 2nd instar larvae, 5 days; for pest or weed control at 400 ppm: Trichoplusia ni, 120 h, read-out: CL: activity at 400 ppm against cabbage looper (% Control rating)
[6] = test system: Brown Planthopper (Nilaparvata lugens); experiment: Insecticidal test for Brown Planthopper (rice seedling roots in test solution); details: 10 ppm test solution, rice seedling roots, 3rd instar nymphs, mortality at 6 days
[7] = test system: Green Leafhopper (Nephotettix cincticeps); experiment: Insecticidal test for Green Leafhopper (rice seedling roots in test solution); details: 10 ppm test solution, rice seedling roots, 3rd instar nymphs, mortality at 6 days
[8] = test system: beet armyworm (Spodoptera exigua); experiment: Insecticidal test for beet armyworm (treated lepidopteran diet); details: 400 ppm, treated diet, second-instar larvae, 5 days; for pest or weed control at 400 ppm: Spodoptera exigua, 120 h, read-out: BAW: activity at 400 ppm against beet armyworm (% Control rating)
[9] = 2.5 ppm (table footnote), ovicide method on cotton leaf discs, 6 days

| Structure (SMILES) | pest or weed control at 400 ppm [1] [%] | pest or weed control at 2.5 ppm [2, 9] [%] | pest or weed control at 200 ppm [3] [%] | pest or weed control at 50 ppm [4] [%] | pest or weed control at 400 ppm [5] [%] | BPH: activity at 10 ppm against brown planthopper (% Control rating) [6] | pest or weed control at 2.5 ppm ([2]; in Gossypium hirsutum) [%] | GLH: activity at 10 ppm against green leafbopper (% Control rating) [7] | pest or weed control at 400 ppm [8] [%] | TBW: activity at 400 ppm against tobacco budworm (% Control rating) [1] | SM: activity at 2.5 ppm against two-spotted spider mite (% Control rating) [2, 9] | WF: activity at 200 ppm against whitefly (% Control rating) [3] | CA: activity at 50 ppm against cotton aphid (% Control rating) [4] | BAW: activity at 400 ppm against beet armyworm (% Control rating) [8] | CL: activity at 400 ppm against cabbage looper (% Control rating) [5] |
| --- | --- | --- | --- | --- | --- | --- | --- | --- | --- | --- | --- | --- | --- | --- | --- |
| Cn1nc(-c2c(F)cccc2Cl)nc1-c1sc(C#CC(C)(C)C)c(Cl)c1Cl [Compound 3] | 60 to 69 | 80 to 89 | < 50 | 90 to 100 | 90 to 100 |  |  |  |  |  |  |  |  |  |  |
| Cn1nc(-c2c(F)cccc2Cl)nc1-c1sc(C#C[Si](C)(C)C)c(Cl)c1Cl [Compound 1, 1-Methyl-3-(2-chloro-6-fluorophenyl)-5-(3,4-dichloro-5-(2-trimethylsilyl-ethynyl)-thien-2-yl) [1 2,4]triazole] | 90 to 100 |  | < 50 | 50 to 59 | 90 to 100 | F (less than 50) | 80 to 89 | B (80-89) | 90 to 100 |  |  |  |  |  |  |
| Cc1c(C#Cc2ccccc2)csc1-c1nc(-c2c(F)cccc2Cl)nn1C [Compound 67] |  |  |  |  |  |  |  |  |  | B (80-89) | B (80-89) | F (less than 50) | A (90-100) | A (90-100) |  |
| Cn1nc(-c2c(F)cccc2Cl)nc1-c1sc(C#Cc2ccccc2)c(Cl)c1Cl [Compound 4] | < 50 | 60 to 69 | < 50 | 80 to 89 | 90 to 100 | E (50-59) |  |  | 90 to 100 |  |  |  |  |  |  |
| CCN(CC)c1ncc(C#Cc2sc(-c3nc(-c4c(F)cccc4Cl)nn3C)c(Cl)c2Cl)cn1 [Compound 41] | 60 to 69 | < 50 | < 50 | < 50 | 80 to 89 | E (50-59) |  |  | 90 to 100 |  |  |  |  |  |  |
| Cn1nc(-c2c(F)cccc2Cl)nc1-c1sc(C#Cc2cccc(F)c2F)c(Cl)c1Cl [Compound 27] |  |  |  |  |  | E (50-59) |  | F (less than 50) |  | D (60-69) | F (less than 50) | D (60-69) |  | A (90-100) | A (90-100) |
| Cn1nc(-c2c(F)cccc2Cl)nc1-c1ccc(C#Cc2ccc(F)cc2)c(Cl)c1Cl [Compound 92] |  |  |  |  |  | F (less than 50) |  | F (less than 50) |  |  | F (less than 50) | F (less than 50) | A (90-100) | A (90-100) | A (90-100) |
| Cn1nc(-c2c(F)cccc2Cl)nc1-c1ccc(C#C[Si](C)(C)C)c(Cl)c1Cl [Compound 96] |  |  |  |  |  |  |  |  |  | F (less than 50) | D (60-69) | F (less than 50) | D (60-69) | A (90-100) | A (90-100) |
